Source: US20240351988A1, “ARYL HYDROCARBON RECEPTOR MODULATORS AND THEIR USE IN THE TREATMENT OF DISEASES AND DISORDERS” (Allianthera (Suzhou) Biopharmaceutical Co., Ltd., priority 2021, published 2024)

Assays:
[1] = test system: AHR-regulated gene CYP1A1 in human monocytic U937 cell line; assay: AHR-regulated CYP1A1 expression in U937 cells (qPCR, kynurenic acid stimulated); type: cell-based; settings: U-937, 200 μM KA, 16 hours, CYP1A1 vs GAPDH, read-out: Cyp ANATAG mode assay: IC50
Procedure: To evaluate the AHR inhibitory activity of the test compounds, quantitative PCR analysis was used to determine expression level of the AHR-regulated gene CYP1A1 in a human monocytic U937 cell line upon stimulation of 200 μM kynurenic acid (KA) in the absence or presence of AHR inhibitor. U937 cells were seeded at a concentration of 5×10^5 cells/well in 200 μL of growth medium in 96-well cell culture microplates. CYP1A1 expression was induced with 200 μM KA (positive control) in the absence or presence of the test compounds for 16 hours. Human U937 cells were typically incubated with eight different concentrations of test compounds (typical dilution: […], 3.2 nM, 16 nM, 80 nM, 400 nM, 2 μM, 10 μM) and analyzed in duplicate on the same cell culture microplate. After stimulation, the media was removed, the cell RNA was isolated using RNeasy Mini Kit (Qiagen, 74104) and reverse-transcribed to cDNA using PrimeScript RT reagent Kit (Perfect Real Time) (TaKaRa, RR037A). Unstimulated cells were used as the negative control. Taqman probes for human CYP1A1 (Hs01054797_g1) and human GAPDH (Hs02786624_g1) were used to analyze fold expression of CYP1A1 of GAPDH.

[2] = target: T1, Human Aryl Hydrocarbon Receptor (AhR) (Homo sapiens, UniProt P35869); assay: AHR antagonist reporter assay in human cell line (INDIGO AhR Reporter Assay System, kynurenic acid activated); type: cell-based; settings: 200 μM kynurenic acid, 24 hours, luciferase; read-out: AhR Reporter Assay KA Antagonist Mode: IC50
T1 construct: purchased INDIGO Bioscience #1B06001-32; host or cells: AhR Reporter Cell (kit's proprietary reporter cells)
T1 sequence (P35869 11-848): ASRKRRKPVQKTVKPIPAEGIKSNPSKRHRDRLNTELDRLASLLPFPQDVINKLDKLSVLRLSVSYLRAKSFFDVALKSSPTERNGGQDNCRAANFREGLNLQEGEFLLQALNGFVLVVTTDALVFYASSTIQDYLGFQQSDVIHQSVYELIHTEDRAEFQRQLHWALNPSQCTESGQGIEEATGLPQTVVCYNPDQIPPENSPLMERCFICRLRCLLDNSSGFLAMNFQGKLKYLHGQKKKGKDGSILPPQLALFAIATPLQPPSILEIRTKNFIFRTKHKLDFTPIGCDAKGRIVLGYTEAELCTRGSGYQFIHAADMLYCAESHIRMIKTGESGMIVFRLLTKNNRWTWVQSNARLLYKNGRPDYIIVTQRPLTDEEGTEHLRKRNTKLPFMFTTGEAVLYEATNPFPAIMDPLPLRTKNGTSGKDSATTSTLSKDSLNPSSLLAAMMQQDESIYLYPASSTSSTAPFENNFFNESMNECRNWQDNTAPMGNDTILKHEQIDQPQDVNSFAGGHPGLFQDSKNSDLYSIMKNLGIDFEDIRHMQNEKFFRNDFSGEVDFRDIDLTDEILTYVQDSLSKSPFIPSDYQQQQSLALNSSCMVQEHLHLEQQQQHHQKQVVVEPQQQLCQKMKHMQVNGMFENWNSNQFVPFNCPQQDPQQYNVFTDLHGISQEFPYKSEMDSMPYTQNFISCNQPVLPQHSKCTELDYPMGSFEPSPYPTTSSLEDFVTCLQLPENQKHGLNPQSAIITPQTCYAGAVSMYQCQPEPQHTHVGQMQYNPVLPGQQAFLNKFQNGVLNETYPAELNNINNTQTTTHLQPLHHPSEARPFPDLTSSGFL
In short: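 AhR reporter cells activated with 200 μM kynurenic acid and exposed to compound dilution series in duplicate for 24 h. Firefly luciferase readout, normalized to positive (literature antagonists or unactivated cells) and negative controls.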

[3] = test system: CT26 tumor cells; assay: Anti-tumor activity in mice bearing CT26 tumors; type: in vivo, BALB/C mouse; settings: CT26, female BALB/C; compound 10 mg/kg orally 16 days; anti PD-1 10 mg/kg i.p. twice every week; FIG. 1
Procedure: Female BALB/C mouse was inoculated subcutaneously on the right flank with CT26 tumor cells (3×10^5) in 0.1 ml of RPMI 1640 Medium without serum for tumor development. Mice were randomized into 4 groups according to body weight on Day 4 after inoculation. The tumor-bearing mice were treated with Vehicle, anti PD-1 antibody (RMP1-14, BioXCell Catalog No. BP0146), a AHR antagonist compound as disclosed herein and a combination therapy of a AHR antagonist compound as disclosed herein and the anti PD-1 (or established treatment). The AHR antagonist compound was dosed orally at for example 10 mg/kg alone or in combination with established treatment for 16 days. When the established treatment was PD-1 antibody, the antibody was administered via intraperitoneal injection at 10 mg/kg, twice every week.

Question: For `CNC(=O)[C@H](C)NC(=O)c1cc(-c2ccc(OC(F)(F)F)cc2)nn(-c2cnn(C)c2)c1=O` [Compound 170], which IC50 [1] is on record?
Answer: < 100 nM

Question: What about the IC50 [2] of the same compound?
Answer: < 100 nM

Question: What does the source list for `CNC(=O)[C@H](C)NC(=O)c1cc(-c2ccc(-c3ccc(Cl)cc3)cc2)nn(-c2cnn(C)c2)c1=O` [Compound 171]?
Answer: IC50 [1]: < 100 nM; IC50 [2]: < 100 nM

Question: What does the source list for `CN1CCCC[C@H](NC(=O)c2cc(-c3ccc(C(F)(F)F)nc3)nn(-c3cnn(C)c3)c2=O)C1=O` [Compound 172]?
Answer: IC50 [1]: < 100 nM; IC50 [2]: < 100 nM

Question: What does the source list for `CNC(=O)C(C)(C)NC(=O)c1cc(-c2ccc(C(F)(F)F)cc2)nn(-c2cnn(C)c2)c1=O` [Compound 173]?
Answer: IC50 [1]: < 100 nM; IC50 [2]: < 100 nM

Question: With `Cc1nn(C)c2cc(-c3cc(C(=O)N[C@@H](C)CO)c(=O)n(-c4cnn(C)c4)n3)ccc12` [Compound 175] as the compound, how does the IC50 [1] read?
Answer: 100 to 400 nM

Question: What about the IC50 [2] of the same compound?
Answer: < 100 nM

Question: `Cc1nn(C)c2cc(-c3cc(C(=O)N[C@@H](C)C(=O)N(C)C)c(=O)n(-c4cnn(C)c4)n3)ccc12` [Compound 176] was tested. Which IC50 [1] did it give?
Answer: 100 to 400 nM

Question: What about the IC50 [2] of the same compound?
Answer: < 100 nM

Question: Which IC50 [1] does the source give for `C[C@H](NC(=O)c1cc(-c2ccc(-c3ccc(Cl)cc3)nc2)nn(-c2cnn(C)c2)c1=O)C(=O)N(C)C` [Compound 177] here?
Answer: < 100 nM

Question: What about the IC50 [2] of the same compound?
Answer: < 100 nM

Question: Which results are given for `CNC(=O)[C@H](C)NC(=O)c1cc(-c2cnc(-c3ccc(Cl)cc3)nc2)nn(-c2cnn(C)c2)c1=O` [Compound 181]?
Answer: IC50 [1]: 100 to 400 nM; IC50 [2]: < 100 nM

Question: Which results are given for `CNC(=O)[C@H](C)NC(=O)c1cc(-c2ccc(-c3ccc(Cl)cc3)nc2)nn(-c2cnn(C)c2)c1=O` [Compound 183]?
Answer: IC50 [1]: < 100 nM; IC50 [2]: < 100 nM

Question: With `C[C@@H](CO)NC(=O)c1cc(-c2ccc(-c3ccccc3)nc2)nn(-c2cnn(C)c2)c1=O` [Compound 185] as the compound, how does the IC50 [1] read?
Answer: < 100 nM

Question: What about the IC50 [2] of the same compound?
Answer: < 100 nM

Question: What does the source list for `C[C@@H](CO)NC(=O)c1cc(-c2cnc(-c3ccc(F)cc3)nc2)nn(-c2cnn(C)c2)c1=O` [Compound 186]?
Answer: IC50 [1]: < 100 nM; IC50 [2]: < 100 nM

Question: `C[C@@H](CO)NC(=O)c1cc(-c2ccc(-c3cccc(F)c3)nc2)nn(-c2cnn(C)c2)c1=O` [Compound 191] was tested. Which IC50 [1] did it give?
Answer: < 100 nM

Question: And the IC50 [2]?
Answer: < 100 nM

Question: How did the IC50 [1] turn out when `C[C@@H](CO)NC(=O)c1cc(-c2ccc(-c3ccccc3F)nc2)nn(-c2cnn(C)c2)c1=O` [Compound 192] was run?
Answer: < 100 nM

Question: What about the IC50 [2] of the same compound?
Answer: < 100 nM

Question: How did the IC50 [1] turn out when `C[C@@H](CO)NC(=O)c1cc(-c2cnc(-c3cccc(F)c3)nc2)nn(-c2cnn(C)c2)c1=O` [Compound 193] was run?
Answer: < 100 nM

Question: And the IC50 [2]?
Answer: < 100 nM

Question: How did the IC50 [1] turn out when `C[C@@H](CO)NC(=O)c1cc(-c2cnc(-c3ccccc3F)nc2)nn(-c2cnn(C)c2)c1=O` [Compound 194] was run?
Answer: < 100 nM

Question: And the IC50 [2]?
Answer: < 100 nM

Question: Which IC50 [1] does the source give for `C[C@@H](CO)NC(=O)c1cc(-c2ccc(-c3ccc(F)nc3)nc2)nn(-c2cnn(C)c2)c1=O` [Compound 195] here?
Answer: < 100 nM

Question: What about the IC50 [2] of the same compound?
Answer: < 100 nM

Question: What does the source list for `C[C@@H](CO)NC(=O)c1cc(-c2ccc(C3CCOCC3)cc2)nn(-c2cnn(C)c2)c1=O` [Compound 197]?
Answer: IC50 [1]: 100 to 400 nM; IC50 [2]: 100 to 400 nM

Question: For `C[C@@H](CO)NC(=O)c1cc(-c2ccc(C3CCCCC3)cc2)nn(-c2cnn(C)c2)c1=O` [Compound 198], which IC50 [1] is on record?
Answer: < 100 nM

Question: What about the IC50 [2] of the same compound?
Answer: < 100 nM

Question: How did the IC50 [1] turn out when `C[C@@H](CO)NC(=O)c1cc(-c2cnc(-c3ccc(F)cc3)nc2)nc(-c2cnn(C)c2)n1` [Compound 199] was run?
Answer: < 100 nM

Question: What about the IC50 [2] of the same compound?
Answer: < 100 nM

Question: With `C[C@@H](CO)n1cnc2c(-c3cnn(C)c3)nc(-c3cnc(-c4ccc(F)cc4)nc3)cc2c1=O` [Compound 200] as the compound, how does the IC50 [1] read?
Answer: < 100 nM

Question: What about the IC50 [2] of the same compound?
Answer: < 100 nM

Question: Which results are given for `CCc1ccc(-c2cc(C(=O)N[C@@H](C)CO)c(=O)n(-c3cnn(C)c3)n2)cc1` [Compound 201]?
Answer: IC50 [1]: < 100 nM; IC50 [2]: < 100 nM

Question: `CC(C)c1ccc(-c2cc(C(=O)N[C@@H](C)CO)c(=O)n(-c3cnn(C)c3)n2)cc1` [Compound 202] was tested. Which IC50 [1] did it give?
Answer: < 100 nM

Question: And the IC50 [2]?
Answer: < 100 nM

Question: Which IC50 [1] does the source give for `C[C@@H](CO)NC(=O)c1cc(-c2ccc(C(C)(C)C)cc2)nn(-c2cnn(C)c2)c1=O` [Compound 203] here?
Answer: < 100 nM

Question: What about the IC50 [2] of the same compound?
Answer: < 100 nM

Question: For `CCc1ccc(-c2cc(C(=O)N[C@@H](C)COC)c(=O)n(-c3cnn(C)c3)n2)cc1` [Compound 204], which IC50 [1] is on record?
Answer: < 100 nM

Question: And the IC50 [2]?
Answer: 100 to 400 nM

Question: Which IC50 [1] does the source give for `COC[C@H](C)NC(=O)c1cc(-c2ccc(C(C)C)cc2)nn(-c2cnn(C)c2)c1=O` [Compound 206] here?
Answer: < 100 nM

Question: And the IC50 [2]?
Answer: < 100 nM

Question: Which results are given for `C[C@@H](CO)NC(=O)c1cc(N2CCC(c3ccc(F)cc3)CC2)nn(-c2cnn(C)c2)c1=O` [Compound 207]?
Answer: IC50 [1]: 100 to 400 nM; IC50 [2]: > 400 nM

Question: `C[C@@H](CO)NC(=O)c1cc(N2CCN(c3ccc(F)cc3)CC2)nn(-c2cnn(C)c2)c1=O` [Compound 208] was tested. Which IC50 [1] did it give?
Answer: < 100 nM

Question: And the IC50 [2]?
Answer: < 100 nM

Question: For `C[C@@H](CO)NC(=O)c1cc(-c2ccc(-c3ccc(F)cc3)nc2)nn(-c2cnn(C)c2)c1=O` [example 184], which IC50 [1] is on record?
Answer: < 100 nM

Question: What about the IC50 [2] of the same compound?
Answer: < 100 nM

Question: What about the “tumor volume compared with Vehicle group” value [3] of the same compound?
Answer: significantly reduced tumor volume
